Reference: ChEMBL document CHEMBL5126594, “Entry inhibition of hepatitis B virus using cyclosporin O derivatives with peptoid side chain incorporation” (Bioorg Med Chem, 2022)
Blank lines part the entries; values can stand above or below the compound they belong to.

Experiments:
Hepatitis B virus [1] = experiment: Antiviral activity against Hepatitis B virus infected in human HepG2 cells expressing NTCP assessed as inhibition of viral entry by measuring intracellular HBV DNA at 1 uM preincubated with compound for 2 hrs followed by viral infection and measured after 3 hrs by qPCR analysis relative to control; format: functional; conditions: time 5 hrs
Hepatitis B virus [2] = experiment: Antiviral activity against Hepatitis B virus infected in human HepG2 cells expressing NTCP assessed as inhibition of viral entry by measuring intracellular HBV DNA preincubated with compound for 2 hrs followed by viral infection and measured after 3 hrs by qPCR analysis; format: functional, organism-based
[3] = Cytotoxicity against human HepG2 cells assessed as reduction in cell viability incubated for 24 hrs by MTS assay; format: toxicity, cell-based; conditions: read-out: LC50

Structure (SMILES): CCC[C@@H]1NC(=O)[C@H](CC(C)C)N(C)C(=O)[C@H](CC(C)C)N(C)C(=O)[C@H](CC(C)C)N(C)C(=O)CN(C)C(=O)[C@@H](C)NC(=O)[C@@H](CCC(N)=O)NC(=O)[C@H](CC(C)C)N(C)C(=O)[C@H](C(C)C)NC(=O)[C@H](CC(C)C)N(C)C(=O)CN(C)C1=O
inhibition at 1 µM (Hepatitis B virus [1]): 64%

Structure (SMILES): CCC[C@@H]1NC(=O)[C@H](CC(C)C)N(C)C(=O)[C@H](CC(C)C)N(C)C(=O)[C@H](CC(C)C)N(C)C(=O)[C@H](CC(C)C)N(C)C(=O)[C@@H](C)NC(=O)[C@@H](CCC(N)=O)NC(=O)[C@H](CC(C)C)N(C)C(=O)[C@H](C(C)C)NC(=O)CN(CCCCN)C(=O)CN(C)C1=O
inhibition at 1 µM (Hepatitis B virus [1]): 71%

Structure (SMILES): CCC[C@@H]1NC(=O)[C@H](CC(C)C)N(C)C(=O)[C@H](CC(C)C)N(C)C(=O)CN(CCOC)C(=O)[C@H](CC(C)C)N(C)C(=O)[C@@H](C)NC(=O)[C@@H](CCC(N)=O)NC(=O)[C@H](CC(C)C)N(C)C(=O)[C@H](C(C)C)NC(=O)[C@H](CC(C)C)N(C)C(=O)CN(C)C1=O
inhibition at 1 µM (Hepatitis B virus [1]): 52%

Structure (SMILES): CCC[C@@H]1NC(=O)[C@H](CC(C)C)N(C)C(=O)[C@H](CC(C)C)N(C)C(=O)[C@H](CC(C)C)N(C)C(=O)[C@H](CC(C)C)N(C)C(=O)[C@@H](C)NC(=O)[C@@H](CCC(N)=O)NC(=O)[C@H](CC(C)C)N(C)C(=O)[C@H](C(C)C)NC(=O)CN(CCOC)C(=O)CN(C)C1=O
inhibition at 1 µM (Hepatitis B virus [1]): 67%

Structure (SMILES): CCC[C@@H]1NC(=O)[C@H](CC(C)C)N(C)C(=O)[C@H](CC(C)C)N(C)C(=O)[C@H](CC(C)C)N(C)C(=O)[C@H](CC(C)C)N(C)C(=O)[C@@H](C)NC(=O)[C@@H](CCC(N)=O)NC(=O)[C@H](CC(C)C)N(C)C(=O)[C@H](C(C)C)NC(=O)CN(CCC(=O)O)C(=O)CN(C)C1=O
inhibition at 1 µM (Hepatitis B virus [1]): 61%

IC50 (Hepatitis B virus [2]): 0.44 µM
Structure (SMILES): CCC[C@@H]1NC(=O)[C@H](CC(C)C)N(C)C(=O)[C@H](CC(C)C)N(C)C(=O)[C@H](CC(C)C)N(C)C(=O)[C@H](CC(C)C)N(C)C(=O)[C@@H](C)NC(=O)[C@H](CCC(N)=O)NC(=O)[C@H](CC(C)C)N(C)C(=O)[C@H](C(C)C)NC(=O)CN(C)C(=O)CN(C)C1=O
inhibition at 1 µM (Hepatitis B virus [1]): 86%

Structure (SMILES): CCC[C@@H]1NC(=O)[C@H](CC(C)C)N(C)C(=O)[C@H](CC(C)C)N(C)C(=O)[C@H](CC(C)C)N(C)C(=O)CN(CC(C)C)C(=O)[C@@H](C)NC(=O)[C@@H](CCC(N)=O)NC(=O)[C@H](CC(C)C)N(C)C(=O)[C@H](C(C)C)NC(=O)[C@H](CC(C)C)N(C)C(=O)CN(C)C1=O
inhibition at 1 µM (Hepatitis B virus [1]): 62%

Structure (SMILES): CCC[C@@H]1NC(=O)[C@H](CC(C)C)N(C)C(=O)[C@H](CC(C)C)N(C)C(=O)CN(CCC(=O)O)C(=O)[C@H](CC(C)C)N(C)C(=O)[C@@H](C)NC(=O)[C@@H](CCC(N)=O)NC(=O)[C@H](CC(C)C)N(C)C(=O)[C@H](C(C)C)NC(=O)[C@H](CC(C)C)N(C)C(=O)CN(C)C1=O
inhibition at 1 µM (Hepatitis B virus [1]): 63%

Structure (SMILES): CCC[C@@H]1NC(=O)[C@H](CC(C)C)N(C)C(=O)[C@H](CC(C)C)N(C)C(=O)CN(CC(C)C)C(=O)[C@H](CC(C)C)N(C)C(=O)[C@@H](C)NC(=O)[C@@H](CCC(N)=O)NC(=O)[C@H](CC(C)C)N(C)C(=O)[C@H](C(C)C)NC(=O)[C@H](CC(C)C)N(C)C(=O)CN(C)C1=O
inhibition at 1 µM (Hepatitis B virus [1]): 65%

Structure (SMILES): CCC[C@@H]1NC(=O)[C@H](CC(C)C)N(C)C(=O)[C@H](CC(C)C)N(C)C(=O)[C@H](CC(C)C)N(C)C(=O)CN(CCC(=O)O)C(=O)[C@@H](C)NC(=O)[C@@H](CCC(N)=O)NC(=O)[C@H](CC(C)C)N(C)C(=O)[C@H](C(C)C)NC(=O)[C@H](CC(C)C)N(C)C(=O)CN(C)C1=O
inhibition at 1 µM (Hepatitis B virus [1]): 84% | IC50 (Hepatitis B virus [2]): 0.45 µM | CC50 at 24 h [3]: > 200 µM

IC50 (Hepatitis B virus [2]): 0.42 µM
Structure (SMILES): CCC[C@@H]1NC(=O)[C@H](CC(C)C)N(C)C(=O)[C@H](CC(C)C)N(C)C(=O)[C@H](CC(C)C)N(C)C(=O)[C@H](CC(C)C)N(C)C(=O)[C@@H](C)NC(=O)[C@@H](CCC(N)=O)NC(=O)[C@H](CC(C)C)N(C)C(=O)[C@H](C(C)C)NC(=O)CN(CC(C)C)C(=O)CN(C)C1=O
inhibition at 1 µM (Hepatitis B virus [1]): 85%

Structure (SMILES): CCC[C@@H]1NC(=O)[C@H](CC(C)C)N(C)C(=O)[C@H](CC(C)C)N(C)C(=O)[C@H](CC(C)C)N(C)C(=O)[C@H](CC(C)C)N(C)C(=O)[C@@H](C)NC(=O)[C@@H](CCC(N)=O)NC(=O)[C@H](CC(C)C)N(C)C(=O)[C@H](C(C)C)NC(=O)CN(CCO)C(=O)CN(C)C1=O
inhibition at 1 µM (Hepatitis B virus [1]): 66%

Structure (SMILES): CCC[C@@H]1NC(=O)[C@H](CC(C)C)N(C)C(=O)[C@H](CC(C)C)N(C)C(=O)CN(C)C(=O)[C@H](CC(C)C)N(C)C(=O)[C@@H](C)NC(=O)[C@@H](CCC(N)=O)NC(=O)[C@H](CC(C)C)N(C)C(=O)[C@H](C(C)C)NC(=O)[C@H](CC(C)C)N(C)C(=O)CN(C)C1=O
inhibition at 1 µM (Hepatitis B virus [1]): 37%
